The structures appear in SMILES notation. Where two headings read alike, the source gives them in different places.

One series relates to IFV B/Lee/40. As to the kind of experiment: microbe, parasite or virus in culture. In kind it is cell-based. To be noted: unidentified influenza virus, 120 h.
Series [1] relates to IFV A/California/2/2014 (H3N2). In words: microbe, parasite or virus in culture. In kind it is cell-based. Conditions: Influenza A virus, 120 h.
In series [2] the target is Influenza A H1N1 (A/California/04/2009) Neuraminidase/NA (Influenza A virus (A/California/04/2009(H1N1)), UniProt C3W5S3). In words: biochemical. Conditions: neuraminidase 1 U/ml.
The next series deals with H1N1(A/PR/8/34) virus. In words: microbe, parasite or virus in culture. In kind it is cell-based. To be noted: Influenza A virus, 96 h.
The nature of the next series: in vitro. In kind it is cell-based. Conditions: dog. Here is the method:
• Toxicity of the tested compounds to MDCK cells was quantified by MDCK cell lines. […] The cell control without compound was also configured. The cells were incubated in an incubator for 4 days. • 4) 50 μL of Cell-titer Glo was added to each well, and the chemiluminescence was detected by a Microplate Reader. Inhibition rate=(average value of cell control−value of tested compounds)/average value of cell control […]

The test system of series [3] is A/Chicken/Jiangsu/k0402/2010 (H5N1). As to the kind of experiment: microbe, parasite or virus in culture. In kind it is cell-based. Conditions: Influenza A virus, H5N1, MDCK, 72 h.
The test system of the next series is B/YZ29/2019 (Victoria). In words: microbe, parasite or virus in culture. In kind it is cell-based. To be noted: unidentified influenza virus, MDCK cells, 72 hours.
Series [4] deals with A/Chicken/Eastern/JTC11/2013 (H7N9). In words: microbe, parasite or virus in culture. Conditions: Influenza A virus, H7N9, MDCK, 72 h. In kind it is cell-based.
Series [5] deals with B/Jiangsu/YZ08/2018 (Yamagata). In words: microbe, parasite or virus in culture. In kind it is cell-based. To be noted: unidentified influenza virus, MDCK cells, 72 hours.
The next series relates to H1N1(A/PR/8/34). As to the kind of experiment: microbe, parasite or virus in culture. In kind it is cell-based, influenza virus H1N1(A/PR/8/34). Conditions: Influenza A virus, MDCK, 96 h.
Where [6] appears, read: MDCK cells, H1N1(A/PR/8/34), 4 days, Cell-titer Glo.
Where [7] appears, read: IFV B/Lee/40, MDCK cells, 5 days, read-out: EC50.
Where [8] appears, read: IFV A/California/2/2014 (H3N2), MDCK cells, 5 days, read-out: EC50.

Turning to `O=C1c2c(O)c(=O)ccn2N([C@@H]2c3ccccc3SCc3c2ccc(F)c3F)[C@@H]2COCCN12` [Baloxavir, baloxivir], the EC50 stood at 1.47 nM in the series with IFV B/Lee/40 (MDCK) and 0.39 nM in series [1] (H3N2, MDCK).
In the case of `C#CCOCCOCCOCCOCCOC(=O)N(CCOCCN(C)C(=O)O[C@@H]([C@@H]1OC(C(=O)O)=C[C@H](NC(=N)N)[C@H]1NC(C)=O)[C@H](O)CO)CCOCCN(C)C(=O)O[C@@H]([C@@H]1OC(C(=O)O)=C[C@H](NC(=N)N)[C@H]1NC(C)=O)[C@H](O)CO` [C-Inter-1], in series [2], the IC50 is 10.4 nM. In the series on H1N1(A/PR/8/34) virus (setting [6]), this molecule yielded an EC50 of 0.28 nM. In “in vitro”, the CC50 at 4 days is more than 100000 nM.
In the same order, the values of `C#CCOCCOCCOCCOCCNC(=O)N(CCOCCN(C)C(=O)O[C@@H]([C@@H]1OC(C(=O)O)=C[C@H](NC(=N)N)[C@H]1NC(C)=O)[C@H](O)CO)CCOCCN(C)C(=O)O[C@@H]([C@@H]1OC(C(=O)O)=C[C@H](NC(=N)N)[C@H]1NC(C)=O)[C@H](O)CO` [C-Inter-2] are 14.2 nM, 0.42 nM and more than 100000 nM.
With `C#CCOCCOCCOCCN1CCC(N(CCOCCN(C)C(=O)O[C@@H]([C@@H]2OC(C(=O)O)=C[C@H](NC(=N)N)[C@H]2NC(C)=O)[C@H](O)CO)CCOCCN(C)C(=O)O[C@@H]([C@@H]2OC(C(=O)O)=C[C@H](NC(=N)N)[C@H]2NC(C)=O)[C@H](O)CO)CC1` [C-Inter-3], the half-inhibitory concentration (IC50) in series [2] is 21.3 nM. The same molecule returned an EC50 in the series with H1N1(A/PR/8/34) virus (setting [6]) of 0.39 nM. In the series “in vitro”, this molecule displayed a CC50 at 4 days of more than 100000 nM.
In turn, `C#CCOCCOCCOCCN1CCN(C(=O)N(CCOCCN(C)C(=O)O[C@@H]([C@@H]2OC(C(=O)O)=C[C@H](NC(=N)N)[C@H]2NC(C)=O)[C@H](O)CO)CCOCCN(C)C(=O)O[C@@H]([C@@H]2OC(C(=O)O)=C[C@H](NC(=N)N)[C@H]2NC(C)=O)[C@H](O)CO)CC1` [C-Inter-4] yielded an IC50 in [2] of 48.7 nM.
In the case of `C#CCOCCOCCOCCOC1CCN(C(=O)N(CCOCCN(C)C(=O)O[C@@H]([C@@H]2OC(C(=O)O)=C[C@H](NC(=N)N)[C@H]2NC(C)=O)[C@H](O)CO)CCOCCN(C)C(=O)O[C@@H]([C@@H]2OC(C(=O)O)=C[C@H](NC(=N)N)[C@H]2NC(C)=O)[C@H](O)CO)CC1` [C-Inter-5], half-maximal inhibition in series [2] (IC50) was put at 37 nM. Also, in the series with H1N1(A/PR/8/34) virus (setting [6]), the EC50 was found to be 0.45 nM. In “in vitro”, this molecule came in with a half-maximal cytotoxic concentration (CC50) at 4 days of more than 100000 nM.
Regarding `C#CCOCCOCCOCCOCCN(C)C(=O)N(CCOCCN(C)C(=O)O[C@@H]([C@@H]1OC(C(=O)O)=C[C@H](NC(=N)N)[C@H]1NC(C)=O)[C@H](O)CO)CCOCCN(C)C(=O)O[C@@H]([C@@H]1OC(C(=O)O)=C[C@H](NC(=N)N)[C@H]1NC(C)=O)[C@H](O)CO` [C-Inter-6], half-maximal inhibition in series [2] (IC50) required 11.9 nM. Moreover, the midpoint of the response in the series with H1N1(A/PR/8/34) virus (setting [6]), the EC50, lay at 0.25 nM. Moreover, in the series “in vitro”, the CC50 at 4 days was more than 100000 nM.
In the same order, the values of `C#CCOCCOCCOCCOCCNS(=O)(=O)N(CCOCCN(C)C(=O)O[C@@H]([C@@H]1OC(C(=O)O)=C[C@H](NC(=N)N)[C@H]1NC(C)=O)[C@H](O)CO)CCOCCN(C)C(=O)O[C@@H]([C@@H]1OC(C(=O)O)=C[C@H](NC(=N)N)[C@H]1NC(C)=O)[C@H](O)CO` [C-Inter-7] are 7.64 nM, 0.57 nM and more than 100000 nM.
Taken in the same sequence, the figures for `C#CCOCCOCCOCCNC(=N)N(CCOCCN(C)C(=O)O[C@@H]([C@@H]1OC(C(=O)O)=C[C@H](NC(=N)N)[C@H]1NC(C)=O)[C@H](O)CO)CCOCCN(C)C(=O)O[C@@H]([C@@H]1OC(C(=O)O)=C[C@H](NC(=N)N)[C@H]1NC(C)=O)[C@H](O)CO` [C-Inter-10] were 10.8 nM, 0.39 nM and more than 100000 nM.
As to `CCC(CC)O[C@@H]1C=C(C(=O)O)C[C@H](N)[C@H]1NC(C)=O` [Oseltamivir acid], the EC50 is 801 nM with IFV B/Lee/40 (setting [7]); 210 nM in [3]; 710 nM with B/YZ29/2019 (Victoria); 540 nM in [4]; more than 100000 nM in series [1] (setting [8]); 780 nM in series [5].
In the case of `CC(=O)N[C@H]1[C@H]([C@H](O)[C@H](O)CO)OC(C(=O)O)=C[C@@H]1N=C(N)N` [Zanamivir, zanamivir, reference compound], the EC50 in the series on IFV B/Lee/40 (setting [7]) was 57.5 nM; with B/YZ29/2019 (Victoria), 59 nM; in the series on H1N1(A/PR/8/34) virus (MDCK) it was 39.7 nM; in series [1] (setting [8]) it was more than 10000 nM; in the series on H1N1(A/PR/8/34), 45.7 nM; in series [5] it was 90 nM. In addition, the CC50 in the series “in vitro” is more than 100000 nM.

Broadly, the EC50 is the concentration giving half of the maximal effect. What is called IC50 is the point on the concentration scale where inhibition reaches its midpoint. A higher IC50 goes with lower potency. The term CC50 denotes the concentration that lowers cell viability or growth by half. A lower CC50 goes with harm at low concentration.
